Reference: article PMC12822377, “Investigating the role of cytochrome bd oxidases in the antibacterial activity of madecassic acid and derivatives thereof” (RSC Medicinal Chemistry, 2026)

Legend:
cytochrome bd-I [1] = target: T1, cytochrome bd-I (Escherichia coli, UniProt P0ABJ9); experiment: Oxygen electrode cytochrome bd-I assay with duroquinol as the electron source (EcoM4 pSU2718G-cydABX-his6 membranes); type: biochemical; details: 1 mM, 400 µM duroquinol as electron donor
T1 construct: oxygen consumption activity of E. coli EC958 cytochrome bd-I-only membranes; endogenous in cells; host or cells: E. coli EC958 bd-I only strain (genotype ΔcyoA appCB::Cm), isolated membranes
T1 sequence (P0ABK2 whole entry): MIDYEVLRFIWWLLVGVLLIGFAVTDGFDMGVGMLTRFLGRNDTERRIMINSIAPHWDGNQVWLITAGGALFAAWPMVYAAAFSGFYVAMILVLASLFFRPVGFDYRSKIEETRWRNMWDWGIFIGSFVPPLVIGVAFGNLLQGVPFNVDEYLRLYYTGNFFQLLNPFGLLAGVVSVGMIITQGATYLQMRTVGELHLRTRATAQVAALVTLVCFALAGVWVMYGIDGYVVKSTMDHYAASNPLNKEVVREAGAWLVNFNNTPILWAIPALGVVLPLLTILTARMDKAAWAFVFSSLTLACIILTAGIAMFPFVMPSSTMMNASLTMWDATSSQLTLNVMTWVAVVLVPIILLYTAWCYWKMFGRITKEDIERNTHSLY
T1 sequence (A5A618 whole entry, further chain): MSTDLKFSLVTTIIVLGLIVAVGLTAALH
T1 sequence (P0ABJ9 whole entry): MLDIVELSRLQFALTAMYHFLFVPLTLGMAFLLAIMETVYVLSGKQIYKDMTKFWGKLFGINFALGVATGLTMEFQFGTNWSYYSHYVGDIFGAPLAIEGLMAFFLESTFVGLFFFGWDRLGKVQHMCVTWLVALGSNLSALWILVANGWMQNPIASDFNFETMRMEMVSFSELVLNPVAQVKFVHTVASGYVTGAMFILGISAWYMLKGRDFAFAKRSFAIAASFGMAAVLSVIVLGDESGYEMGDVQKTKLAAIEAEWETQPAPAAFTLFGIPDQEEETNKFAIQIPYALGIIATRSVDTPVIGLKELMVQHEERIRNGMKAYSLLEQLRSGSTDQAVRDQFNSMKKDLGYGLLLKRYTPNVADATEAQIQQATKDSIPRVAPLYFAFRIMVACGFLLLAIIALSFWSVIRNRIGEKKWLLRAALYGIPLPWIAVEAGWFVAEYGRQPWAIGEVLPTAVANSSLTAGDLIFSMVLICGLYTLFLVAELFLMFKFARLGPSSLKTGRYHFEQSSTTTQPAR
T1 sequence (P56100 whole entry, further chain): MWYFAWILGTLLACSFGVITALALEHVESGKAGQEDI
Protocol: Oxygen electrode cytochrome bd-I assays with duroquinol as the electron source Membranes from the E. coli EcoM4 pSU2718G-cydABX-his 6 strain were prepared as described previously(6). To specifically monitor cytochrome bd-I activity, duroquinol was used as a directly electron source. Duroquinol was prepared from duroquinone as previously described(7) and quantified using the extinction coefficient ΔA275(ox – red) = 16 mM-1cm-1 (8). Cytochrome bd-I activity was then monitored via oxygen consumption in a Rank Brothers oxygen electrode with a 2 mL closed chamber at 37 °C, which contained 50 mM HEPES pH 7.4, 0.5 mg/mL membranes (based on wet membranes) and DMSO-solubilised drug (added from 40x final concentration) or ‘DMSO only’ control. A final concentration of 400 µM duroquinol (in 50 mM KPi, 2mM EDTA pH 7.5) was added to initiate the reaction.
7. Rich P. Electron transfer reactions between quinols and quinones in aqueous and aprotic
8. Degli Esposti M, Lenaz G, Izzo G, Papa S. Kinetics and sidedness of ubiquinol-cytochrome c
Figure S3. […] Cytochrome bd-I activity was measured via monitoring oxygen consumption in an oxygen electrode in the presence and absence of 1 mM madecassic acid, and negative controls were recorded in the absence of membranes. […]

cytochrome bd-I [2] = target: T1, cytochrome bd-I; experiment: Oxygen consumption assay with isolated E. coli EC958 cytochrome bd-I only membranes; type: biochemical
Protocol: Membrane preparation and oxygen consumption were performed as described previously.[13] Briefly, cells were grown to exponential phase then harvested via centrifugation for 20 min at 4000 rpm and 4 °C. The cell pellet was resuspended in ice-cold sonication buffer (20 mM Tris/HCl at pH 7.4, 2 mM MgCl2, and 1 mM EGTA). The resuspended cells were sonicated (6 × 30s on ice at […]) before centrifugation at 44 000 rpm for 1 h and 4 °C to isolate membranes. The membrane pellet was resuspended in 20 mM Tris/HCl (pH 7.4) at a final concentration of 100 mg mL^−1 and stored at −20 °C. For oxygen measurements a Rank Brothers oxygen electrode with a 4 mL closed chamber was used at 37 °C, which contained 50 mM HEPES pH 7.4, 0.5 mg mL^−1 membranes (based on wet membranes) and DMSO-solubilised drug (added from 40× final concentration). A final concentration of 8 mM succinate (pH 7.4) was added (from 160 mM stock) to initiate the reaction with a single run lasting 15–20 min.

[3] = test system: wild type E. coli EC958 cells; experiment: Survival assay against wild type E. coli EC958 cells; type: cell-based, Escherichia coli; details: wild type EC958 strain
Protocol: (§1) Viability assays were performed essentially as described previously.[13] Briefly, E. coli was grown overnight in 10 mL LB medium and was used to inoculate M9 medium. 20 μL of each drug was added to the wells of row A of a 96 well plate followed by 180 μL of cells (OD600 of 0.1). Cells were exposed to drug for 3 hours at 37 °C. Following drug exposure, serial dilutions were performed in 1 × phosphate buffered saline (pH 7.4) before being spotted onto LB agar plates overnight to determine changes in cell survival. Six repeats were performed for each concentration of drug which included two biological repeats and three technical repeats of each.
(§2) Figure S1. Impact of madecassic acid upon E. coli growth and survival. (A) Growth assays of MA against wild type E. coli EC958 cells. Error bars represent standard deviations for at least 4 technical repeats, including two biological repeats. (B) Wild type E. coli EC958 cells were exposed to various concentrations of madecassic acid and bacterial survival was enumerated using serial dilution and viability plating. Error bars represent standard deviations for at least four technical repeats, including two […]
(§3) (1 picture or pasted object on this page, not shown here)

[4] = test system: wild type E. coli EC958 cells; experiment: Growth assay against wild type E. coli EC958 cells; type: cell-based, Escherichia coli; details: wild type EC958 strain, aerobic conditions
Protocol: (§4) Starter cultures were grown in 10 mL LB (E. coli) in sterile 50 mL conical flasks at 180 rpm and 37 °C until stationary phase was reached and were used to inoculate 50 mL of fresh growth medium in 250 mL conical flasks. M9 minimal medium was used for E. coli (16 g L^−1 Na2HPO4·2H2O, 3 g L^−1 KH2PO4, 0.5 g L^−1 NaCl, 1 g L^−1 NH4Cl, 0.24 g L^−1 MgSO4, 0.01 g L^−1 CaCl2, 0.1% casamino acids and 2% glycerol). Drug stocks were prepared in DMSO so that their final concentrations were 40× higher than the working concentrations. Greiner F-bottom sterile 96-well plates were prepared by adding 100 μL of a 2× concentrated growth medium, 61.7 μL sterile milliQ H2O, 5 μL of the drug and 33.3 μL of cell culture (final OD600 of ∼0.1). Cells were grown in a FLUOstar Omega plate reader at double orbital pattern setting.
as §2, §3

[5] = test system: E. coli EC958 cytochrome bd-I only cells; experiment: Growth assay against E. coli cytochrome bd-I only cells; type: cell-based, Escherichia coli; details: for IC50: Escherichia coli, read-out: IC50, growth inhibition, bd-I only E. coli cells, M9 minimal medium
Protocol: (§5) EC958 is a multidrug-resistant E. coli O25: H4-ST131 isolate.[16,17] Generation of the EC958 bd-I only strain (genotype ΔcyoA appCB::Cm) is described elsewhere.[13]
as §4

succinate dehydrogenase = target: T2, succinate dehydrogenase (Escherichia coli, UniProt P07014+P0AC41+P0AC44+P69054); experiment: Succinate dehydrogenase assay in isolated E. coli membranes; type: biochemical; details: 1 mM
T2 construct: endogenous in cells; host or cells: E. coli membranes; the main text says EcoM4 pSU2718G-cydABX-his6, the supplement says EC958
T2 sequence (P0AC41 whole entry): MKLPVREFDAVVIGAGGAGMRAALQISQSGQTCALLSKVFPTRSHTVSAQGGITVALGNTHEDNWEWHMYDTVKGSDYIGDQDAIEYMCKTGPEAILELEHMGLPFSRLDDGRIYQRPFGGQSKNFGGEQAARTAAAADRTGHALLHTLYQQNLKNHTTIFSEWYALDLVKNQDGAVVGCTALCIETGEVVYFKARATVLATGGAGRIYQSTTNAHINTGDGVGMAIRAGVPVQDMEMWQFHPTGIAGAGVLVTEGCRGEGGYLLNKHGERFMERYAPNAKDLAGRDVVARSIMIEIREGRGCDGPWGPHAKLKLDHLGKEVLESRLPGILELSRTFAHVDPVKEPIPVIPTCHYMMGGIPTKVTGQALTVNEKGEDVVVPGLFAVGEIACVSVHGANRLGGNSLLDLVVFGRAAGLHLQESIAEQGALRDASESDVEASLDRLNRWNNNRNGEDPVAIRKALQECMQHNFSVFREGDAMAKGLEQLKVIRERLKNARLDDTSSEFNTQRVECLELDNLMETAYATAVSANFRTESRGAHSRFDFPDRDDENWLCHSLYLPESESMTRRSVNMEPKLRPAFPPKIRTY
T2 sequence (P69054 whole entry): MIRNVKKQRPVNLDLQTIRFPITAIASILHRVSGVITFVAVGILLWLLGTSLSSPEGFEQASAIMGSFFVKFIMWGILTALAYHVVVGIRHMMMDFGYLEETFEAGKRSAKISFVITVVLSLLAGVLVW
T2 sequence (P07014 whole entry): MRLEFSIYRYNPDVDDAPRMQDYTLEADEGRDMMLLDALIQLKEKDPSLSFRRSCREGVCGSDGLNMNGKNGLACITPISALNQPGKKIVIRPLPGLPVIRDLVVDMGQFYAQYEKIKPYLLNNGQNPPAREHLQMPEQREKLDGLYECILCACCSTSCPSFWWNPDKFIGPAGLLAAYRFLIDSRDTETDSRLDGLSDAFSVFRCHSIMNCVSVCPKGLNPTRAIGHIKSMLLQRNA
T2 sequence (P0AC44 whole entry): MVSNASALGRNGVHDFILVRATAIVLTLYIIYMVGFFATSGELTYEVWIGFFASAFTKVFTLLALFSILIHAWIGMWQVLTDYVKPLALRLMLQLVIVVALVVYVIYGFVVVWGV
Source text: Investigating the role of cytochrome bd oxidases in the antibacterial activity of madecassic acid and derivatives thereof
Samantha A. Henry,a Geraud N. Sansom,a Thao Thi Phuong Tran,b Ryan A.
Boughton,a Guy Joiner,a Calum M. Webster,a H. Ireshika C. de Silva,c Michelle D.
Garrett,a Christopher J. Serpell,d Gary K. Robinson,a Mark Shepherd a a School of Natural Sciences, University of Kent, Canterbury, United Kingdom, CT2 7NH, UK b Institute of Chemistry, Vietnam Academy of Science and Technology, 18 Hoang Quoc Viet Road, Cau […]
c Department of Chemistry, University of Colombo, Colombo 03, Sri Lanka d School of Pharmacy, University College London, 29-39 Brunswick Square, London, WC1N 1AX, UK […]
Spectrakinetics were recorded on a Cary 60 spectrophotometer for 15 min and rates were calculated using the extinction coefficient A600 = 20.7 mM -1cm-1 (5) . […]
Isolated E. coli EC958 membranes were assayed for succinate dehydrogenase activity in the presence and absence of 1 mM madecassic acid (MA), and negative controls were recorded in the absence of membranes. […]

[6] = test system: E. coli EC958 cytochrome bd-I only cells; experiment: microbe, parasite or virus in culture; type: cell-based, Escherichia coli
Protocol: as §5, §1

SMILES | effect on cytochrome bd-I activity (oxygen consumption) (cytochrome bd-I [1]) | IC50 (cytochrome bd-I [2]) [µM] | susceptibility to killing (survival assay) [3] | IC50 ([4]; Escherichia coli, read-out: IC50, growth inhibition) [µM] | maximal inhibition of growth [4] [%] | IC50 [5] [µM] | Max inhibition of growth ([5]; bd-I only E. coli cells) [%] | inhibition of SDH activity (succinate dehydrogenase) | killing of cells (viability assay) ([6]; bd-I only E. coli cells, 3 hours exposure at 37 °C) | LC50 ([6]; Escherichia coli, 3 h, read-out: LC50 (killing)) [µM]
C[C@H]1[C@H](C)CC[C@]2(C(=O)O)CC[C@]3(C)C(=CC[C@@H]4[C@@]5(C)C[C@@H](O)[C@H](O)[C@@](C)(CO)[C@@H]5[C@H](O)C[C@]43C)[C@H]12 [MA, Madecassic acid] | completely abolishes bd-I activity | 34 ± 11 | not susceptible to MA-mediated killing at concentrations below 1 mM | ~10 | 48 | 9.4 ± 1.5 | 63 | did not inhibit SDH | did not kill | 
CC1CCC2(C(=O)NCCCCCCCCCCN)CCC3(C)C(=CCC4C5(C)CC(O)C(O)C(C)(CO)C5C(O)CC43C)C2C1C (stereo not shown) [MA-4] |  | 79 ± 44 |  |  |  | > 250 |  |  |  | 304 ± 73
CC(=O)OCC1(C)C(OC(C)=O)C(OC(C)=O)CC2(C)C1C(O)CC1(C)C2CC=C2C3C(C)C(C)CCC3(C(=O)NCCCCCCCCCCN)CCC21C (stereo not shown) [MA-3] |  | 10 ± 1 |  |  |  | 16 ± 11 |  |  |  | 
CC(=O)OCC1(C)C(OC(C)=O)C(OC(C)=O)CC2(C)C1C(O)CC1(C)C2CC=C2C3C(C)C(C)CCC3(C(=O)O)CCC21C (stereo not shown) [MA-2] |  | 15 ± 5 |  |  |  | 116 ± 22 |  |  |  | 
